Laboratory results published in ChEMBL document CHEMBL3044927, “Novel 4(3H)-quinazolinone analogs: synthesis and anticonvulsant activity” (Med Chem Res, 2013).

Key:
Mus musculus [1] = assay: Neurotoxicity against Swiss albino Mus musculus (mouse) at 0.18 mmol/kg, ip measured after 15 to 25 min by chimney test; assay type: toxicity, organism-based; details: in vivo
Mus musculus [2] = assay: Neurotoxicity against Swiss albino Mus musculus (mouse) at 0.37 mmol/kg, ip measured after 15 to 25 min by chimney test; assay type: toxicity, organism-based; details: in vivo
Mus musculus [3] = assay: Neurotoxicity against Swiss albino Mus musculus (mouse) at 0.75 mmol/kg, ip measured after 15 to 25 min by chimney test; assay type: toxicity, organism-based; details: in vivo
Mus musculus [4] = assay: Neurotoxicity against Swiss albino Mus musculus (mouse) at 1.5 mmol/kg, ip measured after 15 to 25 min by chimney test; assay type: toxicity, organism-based; details: in vivo
Mus musculus [5] = assay: Anticonvulsant activity in Swiss albino Mus musculus (mouse) assessed as protection against bicuculline-induced seizure at 0.18 mmol/kg, i.p. administered 30 min prior to bicuculline-challenge measured up to 30 min relative to control; assay type: functional
Mus musculus [6] = assay: Anticonvulsant activity in Swiss albino Mus musculus (mouse) assessed as protection against bicuculline-induced seizure at 0.37 mmol/kg, i.p. administered 30 min prior to bicuculline-challenge measured up to 30 min relative to control; assay type: functional
Mus musculus [7] = assay: Anticonvulsant activity in Swiss albino Mus musculus (mouse) assessed as protection against bicuculline-induced seizure at 0.75 mmol/kg, i.p. administered 30 min prior to bicuculline-challenge measured up to 30 min relative to control; assay type: functional
Mus musculus [8] = assay: Anticonvulsant activity in Swiss albino Mus musculus (mouse) assessed as protection against picrotoxin-induced seizure at 0.18 mmol/kg, i.p. administered 30 min prior to picrotoxin-challenge measured up to 30 min relative to control; assay type: functional
Mus musculus [9] = assay: Anticonvulsant activity in Swiss albino Mus musculus (mouse) assessed as protection against picrotoxin-induced seizure at 0.37 mmol/kg, i.p. administered 30 min prior to picrotoxin-challenge measured up to 30 min relative to control; assay type: functional
Mus musculus [10] = assay: Anticonvulsant activity in Swiss albino Mus musculus (mouse) assessed as protection against picrotoxin-induced seizure at 0.75 mmol/kg, i.p. administered 30 min prior to picrotoxin-challenge measured up to 30 min relative to control; assay type: functional
Mus musculus [11] = assay: Anticonvulsant activity in Swiss albino Mus musculus (mouse) assessed as protection against maximal electric shock-induced seizure at 0.18 mmol/kg, i.p. administered 30 min prior to maximal electric shock-challenge measured up to 30 min relative to control; assay type: functional
Mus musculus [12] = assay: Anticonvulsant activity in Swiss albino Mus musculus (mouse) assessed as protection against maximal electric shock-induced seizure at 0.37 mmol/kg, i.p. administered 30 min prior to maximal electric shock-challenge measured up to 30 min relative to control; assay type: functional
Mus musculus [13] = assay: Anticonvulsant activity in Swiss albino Mus musculus (mouse) assessed as protection against maximal electric shock-induced seizure at 0.75 mmol/kg, i.p. administered 30 min prior to maximal electric shock-challenge measured up to 30 min relative to control; assay type: functional
Mus musculus [14] = species: Mus musculus; assay: Ratio of sodium valporate ED50 to compound ED50 in Swiss albino Mus musculus (mouse) PTZ-seizure model; assay type: functional
[15] = Therapeutic index, ratio of LD50 to ED50 in Swiss albino Mus musculus (mouse); assay type: organism-based; details: in vivo, read-out: Ratio LD50/ED50
[16] = Toxicity against i.p. dosed Swiss albino Mus musculus (mouse) by Sperman-Karber method; assay type: organism-based; details: in vivo, ip
Mus musculus [17] = species: Mus musculus; assay: Protective index, ratio of TD50 for to ED50 in Swiss albino Mus musculus (mouse)
[18] = Neurotoxicity against ip dosed Swiss albino Mus musculus (mouse) measured after 15 to 25 min by chimney test; assay type: toxicity, organism-based; details: in vivo
Mus musculus [19] = assay: Anticonvulsant activity in ip dosed Swiss albino Mus musculus (mouse) assessed as protection against PTZ-induced seizure administered 30 min prior to PTZ-challenge measured up to 30 min; assay type: functional
Mus musculus [20] = assay: Anticonvulsant activity in Swiss albino Mus musculus (mouse) assessed as protection against PTZ-induced seizure at 0.37 mmol/kg, ip administered 30 min prior to PTZ-challenge measured up to 30 min relative to control; assay type: functional
Mus musculus [21] = assay: Anticonvulsant activity in Swiss albino Mus musculus (mouse) assessed as protection against PTZ-induced seizure at 0.75 mmol/kg, ip administered 30 min prior to PTZ-challenge measured up to 30 min relative to control; assay type: functional
Mus musculus [22] = assay: Anticonvulsant activity in Swiss albino Mus musculus (mouse) assessed as protection against bicuculline-induced seizure at 1.5 mmol/kg, ip administered 30 min prior to bicuculline-challenge measured up to 30 min relative to control; assay type: functional
Mus musculus [23] = assay: Anticonvulsant activity in Swiss albino Mus musculus (mouse) assessed as protection against maximal electric shock-induced seizure at 1.5 mmol/kg, ip administered 30 min prior to maximal electric shock-challenge measured up to 30 min relative to control; assay type: functional
Mus musculus [24] = assay: Anticonvulsant activity in Swiss albino Mus musculus (mouse) assessed as protection against PTZ-induced seizure at 1.5 mmol/kg, ip administered 30 min prior to PTZ-challenge measured up to 30 min relative to control; assay type: functional
Mus musculus [25] = assay: Anticonvulsant activity in Swiss albino Mus musculus (mouse) assessed as protection against PTZ-induced seizure at 0.18 mmol/kg, ip administered 30 min prior to PTZ-challenge measured up to 30 min relative to control; assay type: functional

Which results are given for O=C1c2ccccc2C(=O)N1n1c(-c2cccs2)nc2ccc(I)cc2c1=O?
Activity (Mus musculus [1]): 0%; Activity (Mus musculus [2]): 30%; Activity (Mus musculus [3]): 30%; Activity (Mus musculus [4]): 80%; Activity (Mus musculus [5]): 0%; Activity (Mus musculus [6]): 10%; Activity (Mus musculus [7]): 40%; Activity (Mus musculus [8]): 20%; Activity (Mus musculus [9]): 50%; Activity (Mus musculus [10]): 50%; Activity (Mus musculus [11]): 0%; Activity (Mus musculus [12]): 0%; Activity (Mus musculus [13]): 0%; Ratio ED50 (Mus musculus [14]): 2; selectivity ratio [15]: 5.5; LD50 [16]: 1380 mg/kg; Ratio TD50/ED50 (Mus musculus [17]): 1.78; TD50 [18]: 447 mg/kg; ED50 (Mus musculus [19]): 251 mg/kg; Activity (Mus musculus [20]): 30%; Activity (Mus musculus [21]): 70%; Activity (Mus musculus [22]): 100%; Activity (Mus musculus [23]): 30%; Activity (Mus musculus [24]): 100%; Activity (Mus musculus [25]): 0%
